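Interpolation was linear, between the two tested concentrations surrounding the appropriate level; five concentrations were tested over 48 hours in 96-well plates. The concentration for 50% growth inhibition is given as GI50. The concentration for full growth arrest is given as TGI.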
Tests used:
Assay in all cases: growth of human tumour cells (NCI), 48 h
HOP-62 NSCLC = system: HOP-62 NSCLC
ACHN renal = system: ACHN renal
MDA-MB-231 breast = system: MDA-MB-231 breast
OVCAR-4 ovarian = system: OVCAR-4 ovarian
NCI-H460 lung = system: NCI-H460 lung
SNB-19 CNS = system: SNB-19 CNS
UACC-62 melanoma = system: UACC-62 melanoma
SF-268 CNS = system: SF-268 CNS
BT-549 breast = system: BT-549 breast
SNB-75 CNS = system: SNB-75 CNS
NCI/ADR-RES ovarian = system: NCI/ADR-RES ovarian
HCT-15 colon = system: HCT-15 colon
SR leukemia = system: SR leukemia
CCRF-CEM leukemia = system: CCRF-CEM leukemia
UO-31 renal = system: UO-31 renal
MALME-3M melanoma = system: MALME-3M melanoma
HS 578T breast = system: HS 578T breast
HCC-2998 colon = system: HCC-2998 colon
TK-10 renal = system: TK-10 renal
T-47D breast = system: T-47D breast
HT29 colon = system: HT29 colon
MCF7 breast = system: MCF7 breast
MDA-MB-435 = system: MDA-MB-435
CAKI-1 renal = system: CAKI-1 renal
PC-3 prostate = system: PC-3 prostate
KM12 colon = system: KM12 colon
IGROV1 ovarian = system: IGROV1 ovarian
COLO 205 colon = system: COLO 205 colon
DU-145 prostate = system: DU-145 prostate
SN12C renal = system: SN12C renal
UACC-257 melanoma = system: UACC-257 melanoma
RXF 393 renal = system: RXF 393 renal
OVCAR-3 ovarian = system: OVCAR-3 ovarian
RPMI-8226 leukemia = system: RPMI-8226 leukemia
SW-620 colon = system: SW-620 colon
NCI-H226 lung = system: NCI-H226 lung
SK-MEL-28 melanoma = system: SK-MEL-28 melanoma
OVCAR-5 ovarian = system: OVCAR-5 ovarian
NCI-H522 lung = system: NCI-H522 lung
K-562 leukemia = system: K-562 leukemia
SF-539 CNS = system: SF-539 CNS
A498 renal = system: A498 renal
A549 NSCLC = system: A549 NSCLC
NCI-H23 lung = system: NCI-H23 lung
MOLT-4 leukemia = system: MOLT-4 leukemia
M14 melanoma = system: M14 melanoma
SF-295 CNS = system: SF-295 CNS
HL-60(TB) leukemia = system: HL-60(TB) leukemia
SK-MEL-5 melanoma = system: SK-MEL-5 melanoma
SK-OV-3 ovarian = system: SK-OV-3 ovarian
OVCAR-8 ovarian = system: OVCAR-8 ovarian
786-0 renal = system: 786-0 renal
HCT-116 colon = system: HCT-116 colon

Work on `CCN(CC)CCCC(C)N/C(c1cccc(OC)c1)=c1\c(=O)[nH]n(-c2c3ccccc3nc3ccccc23)c(=O)\c1=C(/NC(C)CCCN(CC)CC)c1cccc(OC)c1` (stereo unspecified) yielded a GI50 (HOP-62 NSCLC) of 1.47 µM, a TGI (HOP-62 NSCLC) of 5.03 µM and a GI50 (ACHN renal) of 0.508 µM. It also gave a TGI (ACHN renal) of 2.35 µM, a GI50 (MDA-MB-231 breast) of 1.25 µM and a TGI (MDA-MB-231 breast) of 3.26 µM. For the same molecule, the GI50 (OVCAR-4 ovarian) was 1.22 µM, the TGI (OVCAR-4 ovarian) was 4.11 µM and the GI50 (NCI-H460 lung) was 0.428 µM. The TGI (NCI-H460 lung) was 2.56 µM, the GI50 (SNB-19 CNS) was 3.18 µM and the TGI (SNB-19 CNS) was 13 µM. The GI50 (UACC-62 melanoma) was 1.69 µM, the TGI (UACC-62 melanoma) was 3.3 µM and the GI50 (SF-268 CNS) was 1.4 µM. For the same molecule, the TGI (SF-268 CNS) was 4.87 µM, the GI50 (BT-549 breast) was 2.15 µM and the TGI (BT-549 breast) was 4.85 µM. For the same molecule, the GI50 (SNB-75 CNS) was 1.41 µM, the TGI (SNB-75 CNS) was 2.74 µM and the GI50 (NCI/ADR-RES ovarian) was 1.79 µM. It also gave a TGI (NCI/ADR-RES ovarian) of 8.91 µM, a GI50 (HCT-15 colon) of 1.02 µM and a TGI (HCT-15 colon) of 6.91 µM. The GI50 (SR leukemia) was 1.28 µM, the TGI (SR leukemia) was 5.61 µM and the GI50 (CCRF-CEM leukemia) was 0.482 µM. The TGI (CCRF-CEM leukemia) was 3.93 µM, the GI50 (UO-31 renal) was 1.31 µM and the TGI (UO-31 renal) was 3.61 µM. For the same molecule, the GI50 (MALME-3M melanoma) was 1.9 µM, the TGI (MALME-3M melanoma) was 3.54 µM and the GI50 (HS 578T breast) was 2.3 µM. For the same molecule, the TGI (HS 578T breast) was 7.28 µM, the GI50 (HCC-2998 colon) was 1.44 µM and the TGI (HCC-2998 colon) was 2.92 µM. The GI50 (TK-10 renal) was 2.58 µM, the TGI (TK-10 renal) was 7.89 µM and the GI50 (T-47D breast) was 2.16 µM. The TGI (T-47D breast) was 5.97 µM, the GI50 (HT29 colon) was 0.591 µM and the TGI (HT29 colon) was 2.51 µM. The GI50 (MCF7 breast) was 0.507 µM, the TGI (MCF7 breast) was 3.41 µM and the GI50 (MDA-MB-435) was 1.45 µM. For the same molecule, the TGI (MDA-MB-435) was 2.98 µM, the GI50 (CAKI-1 renal) was 1.66 µM and the TGI (CAKI-1 renal) was 4.17 µM. For the same molecule, the GI50 (PC-3 prostate) was 1.2 µM, the TGI (PC-3 prostate) was 4.97 µM and the GI50 (KM12 colon) was 1.18 µM. It also gave a TGI (KM12 colon) of 6.51 µM, a GI50 (IGROV1 ovarian) of 1.52 µM and a TGI (IGROV1 ovarian) of 4.99 µM. The GI50 (COLO 205 colon) was 1.22 µM, the TGI (COLO 205 colon) was 2.79 µM and the GI50 (DU-145 prostate) was 1.44 µM. It also gave a TGI (DU-145 prostate) of 8.86 µM, a GI50 (SN12C renal) of 1.74 µM and a TGI (SN12C renal) of 10.8 µM. It also gave a GI50 (UACC-257 melanoma) of 1.78 µM, a TGI (UACC-257 melanoma) of 3.43 µM and a GI50 (RXF 393 renal) of 1.02 µM. For the same molecule, the TGI (RXF 393 renal) was 2.55 µM, the GI50 (OVCAR-3 ovarian) was 1.8 µM and the TGI (OVCAR-3 ovarian) was 5.4 µM. For the same molecule, the GI50 (RPMI-8226 leukemia) was 2.08 µM, the TGI (RPMI-8226 leukemia) was 5.06 µM and the GI50 (SW-620 colon) was 0.528 µM. The TGI (SW-620 colon) was 6.82 µM, the GI50 (NCI-H226 lung) was 1.16 µM and the TGI (NCI-H226 lung) was 3.63 µM. The GI50 (SK-MEL-28 melanoma) was 1.69 µM, the TGI (SK-MEL-28 melanoma) was 3.17 µM and the GI50 (OVCAR-5 ovarian) was 1.79 µM. The TGI (OVCAR-5 ovarian) was 5.21 µM, the GI50 (NCI-H522 lung) was 1.55 µM and the TGI (NCI-H522 lung) was 3.21 µM. It also gave a GI50 (K-562 leukemia) of 1.41 µM, a TGI (K-562 leukemia) of 5.64 µM and a GI50 (SF-539 CNS) of 1.67 µM. It also gave a TGI (SF-539 CNS) of 3.21 µM, a GI50 (A498 renal) of 1.52 µM and a TGI (A498 renal) of 2.93 µM. The GI50 (A549 NSCLC) was 0.992 µM, the TGI (A549 NSCLC) was 4.25 µM and the GI50 (NCI-H23 lung) was 2.02 µM. For the same molecule, the TGI (NCI-H23 lung) was 4.69 µM, the GI50 (MOLT-4 leukemia) was 0.6 µM and the TGI (MOLT-4 leukemia) was 3.89 µM. The GI50 (M14 melanoma) was 2.01 µM, the TGI (M14 melanoma) was 4.1 µM and the GI50 (SF-295 CNS) was 1.74 µM. The TGI (SF-295 CNS) was 3.86 µM, the GI50 (HL-60(TB) leukemia) was 2.16 µM and the TGI (HL-60(TB) leukemia) was 5.23 µM. For the same molecule, the GI50 (SK-MEL-5 melanoma) was 1.7 µM, the TGI (SK-MEL-5 melanoma) was 3.13 µM and the GI50 (SK-OV-3 ovarian) was 2.23 µM. The TGI (SK-OV-3 ovarian) was 7.2 µM, the GI50 (OVCAR-8 ovarian) was 0.937 µM and the TGI (OVCAR-8 ovarian) was 7.77 µM. It also gave a GI50 (786-0 renal) of 1.17 µM, a TGI (786-0 renal) of 3.04 µM and a GI50 (HCT-116 colon) of 0.491 µM. The TGI (HCT-116 colon) was 3.25 µM.
